Data from PubChem BioAssay (NCI).
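1) Cells in 96-well plates. 2) Compound, 48 h, 5 concentrations. 3) Linear interpolation between surrounding doses. 4) Unreached endpoint = highest concentration. Abbreviation: GI50, concentration required for 50% inhibition of growth. At the TGI there is no net growth.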

How the values were obtained:
Experiment in all cases: growth of human tumour cells (NCI), 48 h
786-0 renal = tested on: 786-0 renal
A498 renal = tested on: A498 renal
A549 NSCLC = tested on: A549 NSCLC
ACHN renal = tested on: ACHN renal
BT-549 breast = tested on: BT-549 breast
CAKI-1 renal = tested on: CAKI-1 renal
CCRF-CEM leukemia = tested on: CCRF-CEM leukemia
COLO 205 colon = tested on: COLO 205 colon
DU-145 prostate = tested on: DU-145 prostate
EKVX NSCLC = tested on: EKVX NSCLC
HCC-2998 colon = tested on: HCC-2998 colon
HCT-116 colon = tested on: HCT-116 colon
HCT-15 colon = tested on: HCT-15 colon
HL-60(TB) leukemia = tested on: HL-60(TB) leukemia
HOP-62 NSCLC = tested on: HOP-62 NSCLC
HOP-92 NSCLC = tested on: HOP-92 NSCLC
HS 578T breast = tested on: HS 578T breast
HT29 colon = tested on: HT29 colon
IGROV1 ovarian = tested on: IGROV1 ovarian
K-562 leukemia = tested on: K-562 leukemia
KM12 colon = tested on: KM12 colon
LOX IMVI melanoma = tested on: LOX IMVI melanoma
M14 melanoma = tested on: M14 melanoma
MALME-3M melanoma = tested on: MALME-3M melanoma
MCF7 breast = tested on: MCF7 breast
MDA-MB-231 breast = tested on: MDA-MB-231 breast
MDA-MB-435 = tested on: MDA-MB-435
MDA-MB-468 breast = tested on: MDA-MB-468 breast
MOLT-4 leukemia = tested on: MOLT-4 leukemia
NCI-H226 lung = tested on: NCI-H226 lung
NCI-H23 lung = tested on: NCI-H23 lung
NCI-H460 lung = tested on: NCI-H460 lung
NCI-H522 lung = tested on: NCI-H522 lung
OVCAR-3 ovarian = tested on: OVCAR-3 ovarian
OVCAR-4 ovarian = tested on: OVCAR-4 ovarian
OVCAR-5 ovarian = tested on: OVCAR-5 ovarian
OVCAR-8 ovarian = tested on: OVCAR-8 ovarian
PC-3 prostate = tested on: PC-3 prostate
RPMI-8226 leukemia = tested on: RPMI-8226 leukemia
RXF 393 renal = tested on: RXF 393 renal
SF-268 CNS = tested on: SF-268 CNS
SF-295 CNS = tested on: SF-295 CNS
SF-539 CNS = tested on: SF-539 CNS
SK-MEL-2 melanoma = tested on: SK-MEL-2 melanoma
SK-MEL-28 melanoma = tested on: SK-MEL-28 melanoma
SK-MEL-5 melanoma = tested on: SK-MEL-5 melanoma
SK-OV-3 ovarian = tested on: SK-OV-3 ovarian
SN12C renal = tested on: SN12C renal
SNB-19 CNS = tested on: SNB-19 CNS
SR leukemia = tested on: SR leukemia
SW-620 colon = tested on: SW-620 colon
TK-10 renal = tested on: TK-10 renal
U251 CNS = tested on: U251 CNS
UACC-257 melanoma = tested on: UACC-257 melanoma
UACC-62 melanoma = tested on: UACC-62 melanoma
UO-31 renal = tested on: UO-31 renal

## Cc1ccc2nc(COc3ccc(C(=O)NNC(=O)Nc4ccc(Cl)c(C(F)(F)F)c4)cc3)[nH]c2c1
786-0 renal
  GI50: 14.6 µM
  TGI: 41.6 µM
A498 renal
  GI50: 75.9 µM
  TGI: > 100 µM
A549 NSCLC
  GI50: 7.96 µM
  TGI: 71.1 µM
ACHN renal
  GI50: 27.4 µM
  TGI: > 100 µM
BT-549 breast
  GI50: 13 µM
  TGI: 88.1 µM
CAKI-1 renal
  GI50: 21 µM
  TGI: 64.2 µM
CCRF-CEM leukemia
  GI50: 51.2 µM
  TGI: > 100 µM
COLO 205 colon
  GI50: 21.7 µM
  TGI: 71.8 µM
DU-145 prostate
  GI50: 30.4 µM
  TGI: > 100 µM
EKVX NSCLC
  GI50: 41.8 µM
  TGI: > 100 µM
HCC-2998 colon
  GI50: 28.8 µM
  TGI: > 100 µM
HCT-116 colon
  GI50: 45.1 µM
  TGI: > 100 µM
HCT-15 colon
  GI50: 49.1 µM
  TGI: > 100 µM
HL-60(TB) leukemia
  GI50: > 100 µM
  TGI: > 100 µM
HOP-62 NSCLC
  GI50: 5.68 µM
  TGI: 21.6 µM
HOP-92 NSCLC
  GI50: 5.38 µM
  TGI: 24 µM
HS 578T breast
  GI50: 2.98 µM
  TGI: 53.9 µM
HT29 colon
  GI50: 19.5 µM
  TGI: 84.9 µM
IGROV1 ovarian
  GI50: 9.96 µM
  TGI: 27.2 µM
K-562 leukemia
  GI50: 6.1 µM
  TGI: > 100 µM
KM12 colon
  GI50: 29.5 µM
  TGI: > 100 µM
LOX IMVI melanoma
  GI50: 4.04 µM
  TGI: 18.7 µM
M14 melanoma
  GI50: 8.45 µM
  TGI: > 100 µM
MALME-3M melanoma
  GI50: 2.06 µM
  TGI: 5.06 µM
MCF7 breast
  GI50: 3.61 µM
  TGI: 17.2 µM
MDA-MB-231 breast
  GI50: 6.31 µM
  TGI: 26 µM
MDA-MB-435
  GI50: 5.08 µM
  TGI: 36.5 µM
MDA-MB-468 breast
  GI50: 2.77 µM
  TGI: 7.77 µM
MOLT-4 leukemia
  GI50: 21.6 µM
  TGI: > 100 µM
NCI-H226 lung
  GI50: 12.2 µM
  TGI: 39.7 µM
NCI-H23 lung
  GI50: 10.8 µM
  TGI: 29.7 µM
NCI-H460 lung
  GI50: 7.24 µM
  TGI: 23.4 µM
NCI-H522 lung
  GI50: 13.8 µM
  TGI: 39.7 µM
OVCAR-3 ovarian
  GI50: 24.2 µM
  TGI: > 100 µM
OVCAR-4 ovarian
  GI50: 18 µM
  TGI: 66.8 µM
OVCAR-5 ovarian
  GI50: 26.6 µM
  TGI: > 100 µM
OVCAR-8 ovarian
  GI50: 5.54 µM
  TGI: 47.9 µM
PC-3 prostate
  GI50: 6.71 µM
  TGI: 36.2 µM
RPMI-8226 leukemia
  GI50: 49.8 µM
  TGI: > 100 µM
RXF 393 renal
  GI50: 6.32 µM
  TGI: 22 µM
SF-268 CNS
  GI50: 6.57 µM
  TGI: > 100 µM
SF-295 CNS
  GI50: 12.3 µM
  TGI: 25.9 µM
SF-539 CNS
  GI50: 4 µM
  TGI: 20.1 µM
SK-MEL-2 melanoma
  GI50: 15.9 µM
  TGI: 44.7 µM
SK-MEL-28 melanoma
  GI50: 2.94 µM
  TGI: 9.25 µM
SK-MEL-5 melanoma
  GI50: 11.8 µM
  TGI: 28.4 µM
SK-OV-3 ovarian
  GI50: 21.2 µM
  TGI: 54.1 µM
SN12C renal
  GI50: 10.3 µM
  TGI: 50 µM
SNB-19 CNS
  GI50: 5.59 µM
  TGI: 19.9 µM
SR leukemia
  GI50: 8.46 µM
  TGI: > 100 µM
SW-620 colon
  GI50: 10.7 µM
  TGI: 36.9 µM
TK-10 renal
  GI50: 49.4 µM
  TGI: > 100 µM
U251 CNS
  GI50: 4.13 µM
  TGI: 17.9 µM
UACC-257 melanoma
  GI50: 5.11 µM
  TGI: 58 µM
UACC-62 melanoma
  GI50: 5.31 µM
  TGI: 19.8 µM
UO-31 renal
  GI50: > 100 µM
  TGI: > 100 µM
